Experimental findings from publication PMC12668304, “A Triple Threat Against Ovarian Cancer: Os(II)‐Pt(IV)‐Ceritinib Conjugates for Photodynamic Therapy, Chemotherapy, and Immunogenic Cell Death Induction” (Angewandte Chemie (International Ed. in English), 2025) are described below.

Broadly, the IC50 is the concentration at which inhibition is half-maximal.

Where two headings read alike, the source gives them in different places.

One assay relates to A549 cells. The experiment in a line: (Photo-)cytotoxicity on 2D cell monolayers, resazurin assay. In kind it is cell-based. The note with it: for IC50: A549, normoxic, 4 h exposure. The protocol:
The 2D cytotoxicity and phototoxicity profiles of Os‐Pt‐Cer and controls, were evaluated in a panel of cancerous cell lines, including A2780 (ovarian carcinoma), A549 (non‐small cell lung carcinoma), and MCA205 (murine fibrosarcoma), as well as a non‐cancerous retinal pigment epithelial cell line (RPE‐1). Cells were treated with the compounds (0.003–100 µM) for 4 h, either kept in the dark or irradiated at 670 nm (13.5 J cm^− ^2) (Table S4 and Figure S22) or 740 nm (12.6 J cm^− ^2) and viability was assessed 44 h post‐treatment. To verify robustness, the incubation was extended to 72 h. […]
Human ovarian cancer (A2780) cells and mouse fibrosarcoma cells (MCA205) were cultured in RPMI media. Retinal pigment epithelium (RPE -1) cells were cultured in DMEM/F -12 medium. Lung cancer cells (A549) were cultured in F -12K medium. These cell lines were complemented with 10% of fetal bovine serum, 100 U/mL penicillin -streptomycin mixture, and maintained in a humidified atmosphere […]
(Photo-)cytotoxicity on 2D cell monolayers
The cytotoxicity of the compounds was assessed by measuring cell viability using a resazurin assay.
The cells were seeded in triplicates in 96 well plates with a density of 10 4 cells per well in 100 μL of media. After 24 h, the medium was removed, and the cells were treated with increasing concentrations (0.003 → 100 µM) of the compounds diluted in cell media , achieving a total volume of 100 μL/well.
The cells were incubated with the compound for 4 h (final incubation time 48 h) or 24 h (final incubation time 72 h). After this time, the media was removed and replaced with 100 μL of fresh medium. For the phototoxicity studies, the cells were exposed to light with an Atlas Photonics LUMOS BIO irradiation system. Each well was constantly irradiated at 670 nm (60 min, 13.50 J·cm-2) or 740 nm (60 min, 12.60 J·cm-2). During the irradiation, the temperature of the plate was maintained at 37 °C. The cells were grown in the incubator for an additional 44 or 48 h, respectively. For the determination of the dark cytotoxicity, the cells were not irradiated and after the medium exchange directly incubated for 44 h.
After this time, the medium was replaced with fresh medium containing resazurin (0.2 mg/mL). After […]
4 h of incubation, the conversion of resazurin into resorufin was determined upon excitation at 540 nm and measurement of its emission at 590 nm using a Cytation 5 Imaging Reader from BioTek. The obtained data was analysed with the GraphPad Prism software […]
After 24 h of incubation at 37 °C, 5% CO 2, plates were read using a SpectraMaxM2 Microplate Reader ( λexc = 540 nm; λread = 590 nm). Fluorescence data were normalised, and data were fitted using GraphPad Prism Software, and IC 50 was calculated by non - linear regression. Changes in the size and shape of MCTS were monitored every 24 h using Cytation 5 Imaging Reader from BioTek, objective x4.
Intracellular distribution by confocal fluorescence microscopy
10^4 cells/well (A2780 cells) were seeded in complete medium (RPMI) in µ -slide 8 well (Ibidi) (100 µl/well) and left for 24 h to attach to the bottom. Then, the culture medium was removed , and 100 µl of solution of the corresponding complexes (5 µM) was added. The complexes were incubated with the cells for 4 hours. Thereafter, the medium was removed and replaced by RPMI without phenol red , and Hoechst and MitoTracker Green were added at a final concentration of 1 µg/mL. They were incubated with the cells for 30 min in the dark at 37 °C. Images were collected in a sequential mode in a Leica TCS SP8 confocal microscope with a 60x oil immers ion objective, a line average of 4, and a format of […]
(MTG)→ 500 -550nm, and 488 nm (complexes)→ 680 -730 nm. The confocal pinhole was 1 Airy unit.
Images were analysed with LAS X Flim FCS software.
Intracellular distribution by ICP -MS

In the next assay the test system is A2780 MCTSs. The experiment in a line: (Photo-)cytotoxicity on 3D multicellular tumour spheroids, resazurin assay. Type of assay: cell-based, human. The settings on record: for IC50: normoxic, one week of incubation. The protocol: A2780 spheroids (ca. 500 µm in diameter) were treated with increasing concentrations of the compounds and after 24 h of incubation, the medium was replaced with fresh medium, and the cells were either kept in the dark or irradiated for 1 h at 740 nm. Images of the spheroids were taken every 24 h for 3 days.
Additionally, the phototoxicity was tested via a fluorometric resazurin assay in A2780 MCTSs (Table 3). […] (Figure S29). […] This can be attributed to the different biological endpoints and time frames of the assays: spheroid diameter was monitored over 72 h, whereas resazurin measurements were performed after 7 days, potentially capturing delayed cytotoxic effects due to differences in drug cellular uptake.
4 h of incubation, the conversion of resazurin into resorufin was determined upon excitation at 540 nm and measurement of its emission at 590 nm using a Cytation 5 Imaging Reader from BioTek. The obtained data was analysed with the GraphPad Prism software
MCTS were cultured using ultra-low attachment 96 wells plates from Corning (Fisher Scientific 15329740). A2780 cells were seeded at a density of 1,500 cells per well in 100 μL of RPMI. Within 2-3 days, MCTSs have approximately 500 μm of diameter. The formation as well as integrity and diameter of the MCTSs were monitored by microscopy.
(Photo-)cytotoxicity on 3D multicellular tumor spheroids (MCTS)
After 2 days of growing at 37 °C in 5% CO2, the medium was removed, and MCTSs were treated by adding 100 μL of the medium in the well with increasing concentrations of compounds (Os-Pt-Cer, Os, Ceritinib, Oxaliplatin, cisplatin, and Ce6 as additional control). For untreated reference MCTSs, only half of the medium was added with fresh medium. After 24 hours, the MCTSs were divided into two identical groups. The first group was strictly kept in the dark. The second group was irradiated at 740 nm for 1 h (12.60 J·cm-2) using a LUMOS-BIO photoreactor (Atlas Photonics). After the irradiation, all groups were incubated additional 7 days. Thereafter, medium was replaced with 100 μL of fresh medium containing resazurin (0.2 mg/mL). After 24 h of incubation at 37 °C, 5% CO 2, plates were read using a SpectraMaxM2 Microplate Reader ( λexc = 540 nm; λread = 590 nm). Fluorescence data were normalised, and data were fitted using GraphPad Prism Software, and IC 50 was calculated by non - linear regression. Changes in the size and shape of MCTS were monitored every 24 h using Cytation 5 Imaging Reader from BioTek, objective x4. […]
Figure S29. Cell viability graphs after one week of incubation. Studied compounds were incubated for 24 h, thereafter the medium was renovated. For PDT, plates were irradiated at 740 nm for 1h using a LUMOS-BIO photoreactor (Atlas Photonics). For both PDT and regular cytotoxicity, cells were incubated for one week at 37 °C, 5 % CO2. The medium was renovated each two days. Then, the medium was replaced with 100 µL of fresh medium containing 0.2 mg/mL resazurin (Acros Organics). After 24 h of incubation, the fluorescence signal of the resazurin product was recorded (λexc = 540 nm; λem = 590 nm) using a Cytation 5 Cell Imaging Multi-Mode Reader (Biotek - Agilent).
(1 picture or pasted object on this page, not shown here)
Background: The colour change of resazurin is a common sign of viable cells or microbes.

Setting [1] is: Homo sapiens, dark, total 48 h incubation, read-out: IC50 Dark.
Setting [2] is: Homo sapiens, 168 h, dark, read-out: IC50 Dark.

`C=Cc1c(C)c2cc3nc(c(CC(=O)O)c4[nH]c(cc5nc(cc1[nH]2)C(C)=C5CC)c(C)c4C(=O)O)[C@@H](CCC(=O)O)[C@@H]3C` [Ce6, Chlorin e6]: the “PI (IC50 dark/IC50 irradiation 740 nm)” value in the assay with A549 cells (A549) was at least 17. The IC50 in the assay on A549 cells (Homo sapiens, 740 nm (60 min, 12.60 J·cm^−2), total 48 h, read-out: IC50 Irrad. 740 nm) was 5.86 ± 0.82 µM; in the assay on A549 cells (setting [1]), over 100 µM; in the assay on A2780 MCTSs (setting [2]) it was over 5 µM; in the assay on A2780 MCTSs (Homo sapiens, 740 nm (60 min, 12.60 J·cm^−2), read-out: IC50 Irrad. 740 nm) it was 0.7 ± 0.4 µM. Further, the PI with A2780 MCTSs is at least 7.

In the case of `Cc1cc(Nc2ncc(Cl)c(Nc3ccccc3S(=O)(=O)C(C)C)n2)c(OC(C)C)cc1C1CCNCC1` [Ceritinib], the IC50 is 3.8 ± 0.09 µM with A549 cells (setting [1]) and over 5 µM in the assay on A2780 MCTSs (setting [2]).

`O=C1[O][Pt]2([NH][C@@H]3CCCC[C@H]3[NH]2)[O]C1=O` [Oxaliplatin]: the IC50 in the assay with A549 cells (dark, total 48 h incubation, read-out: IC50 Dark) is 2.8 ± 0.13 µM; in the assay with A2780 MCTSs (dark, read-out: IC50 Dark) it was 0.5 ± 0.7 µM.
